Several values for one entry are separate records, joined by “and”; a condition that tells them apart may be missing. Equal entries are not always repeated.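 Interpolation was linear, between the two tested concentrations surrounding the appropriate level; five concentrations were tested over 48 hours in 96-well plates. GI50: concentration for 50% inhibition of growth.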 Activity calls are given as the source filed them. No stated cut-off is given here; in the data, active = GI50 up to about 1.1 µM and inactive = higher.
Legend:
Assay in all cases: DTP human tumour cell line panel, 48 h
SK-OV-3 = tested on: SK-OV-3
COLO 205 = tested on: COLO 205
SK-MEL-2 = tested on: SK-MEL-2
OVCAR-5 = tested on: OVCAR-5
MDA-MB-435 = tested on: MDA-MB-435
SF-539 = tested on: SF-539
LOX IMVI = tested on: LOX IMVI
KM-20L2 = tested on: KM-20L2
BT-549 = tested on: BT-549
HOP-18 = tested on: HOP-18
DMS-273 = tested on: DMS-273
786-0 = tested on: 786-0
DU-145 = tested on: DU-145
IGROV-1 = tested on: IGROV-1
MDA-MB-231 = tested on: MDA-MB-231
MOLT-4 = tested on: MOLT-4
A498 = tested on: A498
XF498 = tested on: XF498
NCI-H226 = tested on: NCI-H226
PC-3 = tested on: PC-3
EKVX = tested on: EKVX
RXF 393 = tested on: RXF 393
UACC-257 = tested on: UACC-257
HL-60 = tested on: HL-60
T47D = tested on: T47D
TK-10 = tested on: TK-10
Hs-578T = tested on: Hs-578T
DLD-1 = tested on: DLD-1
Malme-3M = tested on: Malme-3M
SNB-78 = tested on: SNB-78
KM12 = tested on: KM12
CCRF-CEM = tested on: CCRF-CEM
HOP-92 = tested on: HOP-92
OVCAR-3 = tested on: OVCAR-3
SR = tested on: SR
OVCAR-8 = tested on: OVCAR-8
SN12C = tested on: SN12C
HCT-15 = tested on: HCT-15
SNB-19 = tested on: SNB-19
SK-MEL-5 = tested on: SK-MEL-5
UACC-62 = tested on: UACC-62
UO-31 = tested on: UO-31
HOP-62 = tested on: HOP-62
A549 = tested on: A549
SF-295 = tested on: SF-295
U-251 = tested on: U-251
SW-620 = tested on: SW-620
HCC 2998 = tested on: HCC 2998
K562 = tested on: K562
NCI-H23 = tested on: NCI-H23
RPMI-8226 = tested on: RPMI-8226
NCI-H522 = tested on: NCI-H522
M19-MEL = tested on: M19-MEL
HT-29 = tested on: HT-29
SF-268 = tested on: SF-268
ACHN = tested on: ACHN
M14 = tested on: M14
SK-MEL-28 = tested on: SK-MEL-28
HCT-116 = tested on: HCT-116
OVCAR-4 = tested on: OVCAR-4
SNB-75 = tested on: SNB-75
LXFL 529 = tested on: LXFL 529

For `N#Cc1cn(C2OC(CO)C(O)C2O)c2ncnc(N)c12` (centres undefined), the GI50 (SK-OV-3) was 26 nM (active) and 42.9 nM (active), the GI50 (COLO 205) was 14.6 nM (active) and < 16.4 nM (active) and the GI50 (SK-MEL-2) was 18.2 nM (active) and 29.6 nM (active). For the same compound, the GI50 (OVCAR-5) was 112 nM (active) and 81.7 nM (active), the GI50 (MDA-MB-435) was < 0.0169 µM (active) and the GI50 (SF-539) was 45.4 nM (active) and 76.4 nM (active). The GI50 (LOX IMVI) was 14.7 nM (active) and 24.9 nM (active), the GI50 (KM-20L2) was 0.0476 µM (active) and the GI50 (BT-549) was 0.0577 µM (active). The GI50 (HOP-18) was 0.109 µM (active), the GI50 (DMS-273) was 0.0409 µM (active) and the GI50 (786-0) was 0.0241 µM (active). The GI50 (DU-145) was 0.0393 µM (active), the GI50 (IGROV-1) was 47.1 nM (active) and 23.8 nM (active) and the GI50 (MDA-MB-231) was 0.0158 µM (active). For the same compound, the GI50 (MOLT-4) was 23.9 nM (active) and 25.3 nM (active), the GI50 (A498) was 57.4 nM (active) and 114 nM (active) and the GI50 (XF498) was 0.00414 µM (active). The GI50 (NCI-H226) was 66.4 nM (active) and 66.2 nM (active), the GI50 (PC-3) was 0.015 µM (active) and the GI50 (EKVX) was 60.3 nM (active) and 94.8 nM (active). The GI50 (RXF 393) was 23.2 nM (active) and 21.7 nM (active), the GI50 (UACC-257) was 62.2 nM (active) and 81.8 nM (active) and the GI50 (HL-60) was < 10 nM (active) and < 13.8 nM (active). For the same compound, the GI50 (T47D) was 0.0199 µM (active), the GI50 (TK-10) was 0.014 µM (active) and the GI50 (Hs-578T) was 0.0302 µM (active). The GI50 (DLD-1) was 0.045 µM (active), the GI50 (Malme-3M) was 39.9 nM (active) and 47.5 nM (active) and the GI50 (SNB-78) was 0.191 µM (active). The GI50 (KM12) was 24.1 nM (active) and 44.4 nM (active), the GI50 (CCRF-CEM) was 16.1 nM (active) and 18 nM (active) and the GI50 (HOP-92) was 46.2 nM (active) and 76.6 nM (active). The GI50 (OVCAR-3) was 25.4 nM (active) and 45 nM (active) and the GI50 (SR) was < 0.01 µM (active).
With `O=C1C2ON3c4ccccc4C(=O)C3(c3ccccc3)C2C(=O)N1c1ccccc1` (centres undefined) the GI50 (OVCAR-8) was > 100 µM (inactive), the GI50 (SK-OV-3) was > 100 µM (inactive) and the GI50 (COLO 205) was > 100 µM (inactive). The GI50 (SN12C) was > 100 µM (inactive), the GI50 (HCT-15) was greater than 100 µM and the GI50 (SNB-19) was > 100 µM (inactive). For the same compound, the GI50 (SK-MEL-5) was > 100 µM (inactive), the GI50 (UACC-62) was > 100 µM (inactive) and the GI50 (UO-31) was > 100 µM (inactive). The GI50 (HOP-62) was > 100 µM (inactive), the GI50 (A549) was > 100 µM (inactive) and the GI50 (SF-295) was > 100 µM (inactive). For the same compound, the GI50 (SF-539) was > 100 µM (inactive), the GI50 (U-251) was > 100 µM (inactive) and the GI50 (KM-20L2) was > 100 µM (inactive). The GI50 (SW-620) was > 100 µM (inactive), the GI50 (HOP-18) was > 100 µM (inactive) and the GI50 (HCC 2998) was > 100 µM (inactive). For the same compound, the GI50 (DMS-273) was > 100 µM (inactive), the GI50 (786-0) was > 100 µM (inactive) and the GI50 (K562) was > 100 µM (inactive). For the same compound, the GI50 (IGROV-1) was > 100 µM (inactive), the GI50 (MOLT-4) was > 100 µM (inactive) and the GI50 (A498) was > 100 µM (inactive). For the same compound, the GI50 (XF498) was > 100 µM (inactive), the GI50 (NCI-H23) was > 100 µM (inactive) and the GI50 (NCI-H226) was > 100 µM (inactive). The GI50 (RPMI-8226) was > 100 µM (inactive), the GI50 (EKVX) was > 100 µM (inactive) and the GI50 (NCI-H522) was > 100 µM (inactive). The GI50 (RXF 393) was > 100 µM (inactive), the GI50 (UACC-257) was > 100 µM (inactive) and the GI50 (HL-60) was > 100 µM (inactive). For the same compound, the GI50 (M19-MEL) was > 100 µM (inactive), the GI50 (HT-29) was > 100 µM (inactive) and the GI50 (SF-268) was > 100 µM (inactive). The GI50 (DLD-1) was > 100 µM (inactive), the GI50 (Malme-3M) was > 100 µM (inactive) and the GI50 (ACHN) was > 100 µM (inactive). For the same compound, the GI50 (M14) was > 100 µM (inactive), the GI50 (SK-MEL-28) was > 100 µM (inactive) and the GI50 (HCT-116) was > 100 µM (inactive). The GI50 (OVCAR-4) was > 100 µM (inactive), the GI50 (SNB-78) was > 100 µM (inactive) and the GI50 (SNB-75) was > 100 µM (inactive). The GI50 (CCRF-CEM) was > 100 µM (inactive), the GI50 (LXFL 529) was > 100 µM (inactive) and the GI50 (HOP-92) was > 100 µM (inactive). For the same compound, the GI50 (SR) was > 100 µM (inactive).

Source: ChEMBL document CHEMBL1201862, “PubChem BioAssay data set” (2004)
